The results in this text go back to US20260027094A1, “USE OF PYRIDONE DERIVATIVE” (GUANGZHOU JOYO PHARMATECH CO., LTD, priority 2022, published 2026).

Assay [1] has as its system TNBS-induced SD rat models of chronic colitis with intestinal fibrosis. Nature of the assay: Pharmacodynamic experiment of TNBS-induced rat models of chronic colitis with intestinal fibrosis. Format: in vivo, SD rats. From the text: • 1) Animals: SD rats, specific pathogen-free (SPF) grade, male, aged 7 to 8 weeks at the time of grouping, with 10 rats per group. The animals were supplied by Beijing HFK Bioscience Co., Ltd. • 2) Reagents, positive drugs, and test drugs • A. Reagents
• B. Positive Drugs: Sulfasalazine Colon-Soluble Capsules, Supplied by Guangdong Qiangji Pharmaceutical Co., Ltd. • C. Test Drug: Compound I, Supplied by Guangzhou JOYO Pharmatech Co., Ltd. • 3) Modeling method
TNBS two-enema method: After the adaptation period inspection and observation were qualified, experimental animals were screened by body weight and randomly divided into six experimental groups based on body weight. The groups included a normal control group, a model control group, a positive drug treatment group, a test compound low dose treatment group, a test compound medium dose treatment group, and a test compound high dose treatment group, with 10 rats in each group. On the day of grouping, animals in the normal control group were administered 50% ethanol solution via enema, while animals in the other groups were administered TNBS ethanol solution via enema. The dose of TNBS was 30 mg per animal, with the induction of the model performed twice at a frequency of once every two weeks. The experimental period lasted for 4 weeks, during which all animals were given normal access to water and food. • 4) Grouping and administration
The Disease Activity Index (DAI) scoring was performed on each group of experimental animals based on indicators such as animal body weight, stool morphology and characteristics, and occult blood or hematochezia. Scoring was performed after model induction, once a day for 10 consecutive days, for a total of 2 rounds.
Note: The DAI score was performed based on the percentage of body weight loss, stool morphology, and progression of blood in the stool. Statistical analysis was conducted comprehensively using these three scoring indicators. • 6) Endpoint sample collection, histopathological analysis, and hydroxyproline content analysis • A. After euthanizing the animals with pentobarbital sodium anesthesia, the colon, i.e., the segment from the end of cecum to the anus, was excised. The intestinal segment was flushed with normal saline, and the entire colon was evenly divided into upper, middle, and lower segments. The middle segment of the colon was further divided, with part of the tissue quickly frozen in liquid nitrogen and stored in a −80° C. refrigerator for measuring the total hydroxyproline levels in the middle segment samples of the colon of animals in each group. The remaining middle segment tissue was fixed in 10% formaldehyde, embedded in paraffin, and sectioned into 3 μm-thick slices. These slices were then deparaffinized in xylene, rehydrated through a graded ethanol series, subjected to H&E staining and Masson staining, dehydrated, cleared, sealed, and observed under a microscope to capture histopathological changes. Routine tissue freezing was performed. • B. Histopathological analysis
• a: Based on the Masson staining results, the area of collagen staining-positive regions and the total area of samples from the middle segment samples of the colon (submucosa and muscularis) of animals in each experimental group were statistically analyzed using Image J to calculate the collagen volume fraction (CVF %) of each sample. • C. Detection of hydroxyproline levels in the colon
The middle segment samples of the colon were processed according to the instructions, using the hydroxyproline detection kit. The total hydroxyproline levels in the middle segment samples of the colon of animals in each group were measured.

Assay [2] relates to carbon tetrachloride-induced SD rat models of liver fibrosis. The assay is described as follows: In vivo pharmacodynamic study on carbon tetrachloride-induced rat models of liver fibrosis. Further details: species or system SD rats. An excerpt: • 1) Animals: SD rats, specific pathogen-free (SPF) grade, male, aged 7 to 8 weeks at the time of grouping, with 10 mice per group. The animals were supplied by Beijing HFK Bioscience Co., Ltd. • 2) Reagents, positive drugs, and test drugs • A. Reagents
• B. Positive Drug: Pirfenidone, Supplied by Biochempartner. • C. Test Drug: compound I, supplied by Guangzhou JOYO Pharmatech Co., Ltd. • 3) Modeling method
Intraperitoneal injection method of carbon tetrachloride: After the adaptation period inspection and observation were qualified, experimental animals were screened by body weight and randomly divided into a normal control group and a model induction group. Starting on the first day of grouping, animals in the model induction group were intraperitoneally injected with a 20% carbon tetrachloride solution dissolved in corn oil, at a modeling frequency of twice a week for six consecutive weeks. After two weeks of carbon tetrachloride induction, animals in the model induction group were randomly subdivided a second time into 5 experimental groups based on their alanine transaminase (ALT) levels (with body weight used as a calibration factor), including the model control group, positive drug treatment group, test compound low dose treatment group, test compound medium dose treatment group, and test compound high dose treatment group. Animals in the normal control group were administered the corresponding vehicle. The experimental period lasted for 6 weeks, during which all animals were given normal access to water and food. • 4) Grouping and administration info
• a: The test compound vehicle was an aqueous solution of 0.5% (w/v) methylcellulose and 0.2% (v/v) Tween 80. • b: An aqueous solution of 0.5% (w/v) methylcellulose and 0.2% (v/v) Tween 80 was used as the vehicle and prepared to the required concentration. • 5) Endpoint sample collection, histopathological analysis, and hydroxyproline content analysis. • A. After euthanizing the animals with pentobarbital sodium anesthesia, the liver was excised and rinsed with normal saline. The liver was divided into three segments: the large lobe, the left lobe, and the right-middle lobe. The large lobe tissue was quickly frozen in liquid nitrogen and stored in a −80° C. refrigerator for measuring the total hydroxyproline levels of animal liver samples in each group. The tissues of left lobe and right-middle lobe of liver were fixed in 10% formaldehyde, embedded in paraffin, and sectioned into 3 μm-thick slices. These slices were then deparaffinized in xylene, rehydrated through a graded ethanol series, subjected to Sirius Red staining, dehydrated, cleared, sealed, and observed under a microscope to capture histopathological changes. Routine tissue freezing was performed. • B. Analysis of fibrosis levels in liver tissue sections;
Based on Sirius Red staining results of liver sections, 1) fibrosis staging was scored according to the scoring criteria listed in Table 3; 2) using Image J, the liver fibrotic area and the total sample area of animals in each experimental group were counted to calculate the collagen volume fraction (CVF %) for each sample. • C. Detection of hydroxyproline levels in liver
The liver large lobe samples were processed according to the instructions using the hydroxyproline detection kit. The total hydroxyproline levels in the liver samples of animals in each group were detected.

[3] abbreviates: sulfasalazine 50 mg/kg twice a day for 4 weeks, colon middle segment, model control 2.00 ± 0.00.
The mark [4] stands for this setting: sulfasalazine 50 mg/kg twice a day, relative to model control group.

For `O=C(O)c1cc(/N=N/c2ccc(S(=O)(=O)Nc3ccccn3)cc2)ccc1O` [Sulfasalazine, reference compound], the “AUC(0-10 d) (D 0-D 10) of DAI scores” value in assay [1] (sulfasalazine 50 mg/kg oral gavage twice a day, after first TNBS induction, mean ± SD) is on record as 29.80 ± 2.79. Moreover, the “AUC(14-24 d) (D 14-D 24) of DAI scores” value in assay [1] (sulfasalazine 50 mg/kg oral gavage twice a day, after second TNBS induction, mean ± SD) came to 11.70 ± 1.69. Also, in assay [1] (sulfasalazine 50 mg/kg twice a day), the “Proliferation of connective tissue and fibrosis process in submucosa and muscularis of the colon” value was “significant improvements and healing”. Also, in assay [1] (sulfasalazine 50 mg/kg twice a day for 4 weeks, Masson staining, model control 6.39 ± 3.16, normal 0.74 ± 0.32), the “CVF (%) of colon middle segment” value stood at 2.67 ± 1.06 %. Further, in assay [1] (setting [3]), the “Inflammatory response (points), histopathological score of colon tissue” value came to 0.60 ± 0.52 points and the “Tissue ulcer (points), histopathological score of colon tissue” value stood at 0.50 ± 0.53 points. In assay [1] (sulfasalazine 50 mg/kg twice a day for 4 weeks, model control 2109.99 ± 385.85, normal 1141.78 ± 106.42), the “HYP (μg/g) of colon middle segment” value is 1299.79 ± 161.27 µg/g. Besides, in assay [1] (setting [4]), the “Change rate of AUC(0-10 d) (%)” value is given as −34.86% and the “Change rate of AUC(14-24 d) (%)” value is listed as −51.35%.
For the molecule `Cc1ccc(=O)n(-c2ccccc2)c1` [Pirfenidone, reference compound], the “Liver fibrosis score (points)” value in assay [2] (pirfenidone 150 mg/kg oral gavage twice a day for 4 weeks, Sirius Red staining, model control 4.90 ± 0.88) amounted to 5.40 ± 0.52 points. For the same molecule, the “Liver CVF (%)” value in assay [2] (pirfenidone 150 mg/kg twice a day for 4 weeks, model control 8.75 ± 2.39, normal 1.24 ± 0.23) is on record as 6.58 ± 2.20 %. The “Liver HYP content” value in assay [2] (pirfenidone 150 mg/kg twice a day for 4 weeks, model control 702.84 ± 173.44, normal 307.30 ± 78.13) stood at 611.19 ± 183.66 µg/g. Moreover, in assay [2] (pirfenidone 150 mg/kg twice a day, Sirius Red), the “Liver histopathological improvement under light microscope” value is recorded as “no significant improvement”.
